Here are results for 20 compounds from patent publication US20140107109A1, “AMINO-DIHYDROTHIAZINE AND AMINO-DIOXIDO DIHYDROTHIAZINE COMPOUNDS AS BETA-SECRETASE ANTAGONISTS AND METHODS OF USE” (Amgen Inc., priority 2012, published 2014).

One experiment concerns the target T1, Cathepsin D (Cat D) (Homo sapiens, UniProt P07339).
T1 construct: Recombinant Cat D was expressed in CHO cells; made in house; host or cells: CHO cells
Put plainly: In vitro enzymatic Cathepsin D (Cat D) FRET assay. The settings on record: read-out: CatD IC50. Type of experiment: biochemical. The essentials:
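FRET read-out: a fluorophore/quencher-labelled peptide substrate is cleaved by 9 nM Cat D (recombinant, CHO-expressed) following a one-hour preincubation with inhibitor dilutions in DMSO. Tris buffer added to neutralize pH ends the reaction before fluorescence measurement.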

In experiment [1] the test system is Aβ40 in conditioned medium of cells stably expressing Amyloid Precursor Protein (APP). Description: In vitro BACE cell-based assay (HEK cell assay), Aβ40 sandwich ELISA. The settings on record: Homo sapiens, HEK293; average IC50, HEK cell assay. The procedure, abridged:
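Aβ40 in conditioned medium was quantified by time-resolved fluorescence sandwich ELISA (pAb40 capture 3 h at 4 °C, biotin-6E10 detection 2 h at 4 °C) after 24 h compound exposure of APP-expressing cells. Doses spanned 10 points from 100 μM or 10 μM top, 0.1% DMSO; IC50 was derived from percent of control.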
On the technique in general: An ELISA detects its analyte on a solid surface through an enzyme-linked reagent.

The target of experiment [2] is Beta Secretase enzyme (BACE1) (Homo sapiens, UniProt P56817). Put plainly: In vitro enzymatic BACE FRET assay. Format: biochemical. The settings on record: average IC50, enzyme assay; read-out: BACE1 FRET assay IC50. The essentials:
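Readout: dequenched fluorescence (ex 488 nm/[…]) after neutralizing with Tris buffer. Reactions, begun by adding 50 nM quenched peptide substrate spanning the BACE cleavage site, were incubated one hour at pH 4.2 in 0.05 M acetate with 100 uM genapol and 10% final DMSO.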

T1 sequence (P07339 65-412, species assumed): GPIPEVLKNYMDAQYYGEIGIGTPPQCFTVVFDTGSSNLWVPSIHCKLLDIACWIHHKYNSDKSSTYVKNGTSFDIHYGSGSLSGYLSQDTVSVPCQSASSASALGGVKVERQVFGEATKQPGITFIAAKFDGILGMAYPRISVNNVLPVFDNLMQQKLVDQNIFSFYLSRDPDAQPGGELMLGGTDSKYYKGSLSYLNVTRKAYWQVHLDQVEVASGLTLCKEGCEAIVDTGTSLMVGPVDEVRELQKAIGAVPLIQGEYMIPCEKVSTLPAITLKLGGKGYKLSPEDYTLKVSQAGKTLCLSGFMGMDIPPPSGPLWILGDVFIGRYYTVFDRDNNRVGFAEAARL
Sequence of Beta Secretase enzyme (BACE1) (P56817 46-501): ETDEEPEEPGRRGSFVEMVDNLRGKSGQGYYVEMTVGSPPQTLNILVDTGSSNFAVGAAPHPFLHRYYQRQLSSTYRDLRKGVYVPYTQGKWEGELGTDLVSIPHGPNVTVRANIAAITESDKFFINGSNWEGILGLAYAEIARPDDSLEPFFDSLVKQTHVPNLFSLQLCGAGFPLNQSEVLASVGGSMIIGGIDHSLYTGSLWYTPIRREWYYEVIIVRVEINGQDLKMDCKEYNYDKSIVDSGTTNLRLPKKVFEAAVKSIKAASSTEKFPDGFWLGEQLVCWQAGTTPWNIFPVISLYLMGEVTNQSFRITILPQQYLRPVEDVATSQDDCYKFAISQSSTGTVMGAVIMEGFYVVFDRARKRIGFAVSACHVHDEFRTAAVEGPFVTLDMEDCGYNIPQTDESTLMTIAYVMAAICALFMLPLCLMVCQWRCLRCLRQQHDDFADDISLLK

Consider `CC1(C)C(N)=N[C@](C)(c2cc(NC(=O)c3ccc4ccccc4n3)ccc2F)CS1(=O)=O` [Example 315, N-(3-((3R)-5-amino-3,6,6-trimethyl-1,1-dioxido-3,6-dihydro-2H-1,4-thiazin-3-yl)-4-fluorophenyl)-2-quinolinecarboxamide], for which the results for the 50% inhibitory concentration (IC50) (at Cathepsin D (Cat D); in experiment [1]; in experiment [2]) were 253 µM, 0.0253 µM and 0.0376 µM, respectively.

In the case of `CC1(C)C(N)=N[C@](C)(c2cc(NC(=O)c3cnc4ccccc4n3)ccc2F)CS1(=O)=O` [Example 316, N-(3-((3R)-5-amino-3,6,6-trimethyl-1,1-dioxido-3,6-dihydro-2H-1,4-thiazin-3-yl)-4-fluorophenyl)-2-quinoxalinecarboxamide], the IC50 on Cathepsin D (Cat D) turned out to be 36.6 µM; in experiment [1] it was 0.018 µM; in experiment [2] it was 0.0412 µM.

Consider `CC#CCOc1cnc(C(=O)Nc2ccc(F)c([C@]3(C)CS(=O)(=O)[C@@](C)(F)C(N)=N3)c2)cn1` [Example 317, N-(3-((3R,6R)-5-amino-6-fluoro-3,6-dimethyl-1,1-dioxido-3,6-dihydro-2H-1,4-thiazin-3-yl)-4-fluorophenyl)-5-(2-butyn-1-yloxy)-2-pyrazinecarboxamide], for which the values for the IC50 (at Cathepsin D (Cat D); in experiment [1]; in experiment [2]) were greater than 133 µM, 0.0036 µM and 0.00021 µM, respectively.

`COc1ccc(C(=O)Nc2ccc(F)c([C@]3(C)CS(=O)(=O)[C@@](C)(F)C(N)=N3)c2)nc1` [Example 318, N-(3-((3R,6R)-5-amino-6-fluoro-3,6-dimethyl-1,1-dioxido-3,6-dihydro-2H-1,4-thiazin-3-yl)-4-fluorophenyl)-5-methoxy-2-pyridinecarboxamide]: the 50% inhibitory concentration (IC50) at Cathepsin D (Cat D) is greater than 400 µM; in experiment [1] it was 0.0688 µM; in experiment [2], 0.0018 µM.

Consider `C[C@]1(F)C(N)=N[C@](C)(c2cc(NC(=O)c3ccc(C(F)F)cn3)ccc2F)CS1(=O)=O` [Example 319, N-(3-((3R,6R)-5-amino-6-fluoro-3,6-dimethyl-1,1-dioxido-3,6-dihydro-2H-1,4-thiazin-3-yl)-4-fluorophenyl)-5-(difluoromethyl)-2-pyridinecarboxamide], for which the concentration for half-maximal inhibition (IC50) at Cathepsin D (Cat D) is greater than 400 µM; in experiment [1] it was 0.07 µM; in experiment [2] it was 0.00162 µM.

For `C[C@]1(F)C(N)=N[C@](C)(c2cc(NC(=O)c3ncc(Cl)cc3F)ccc2F)CS1(=O)=O` [Example 320, N-(3-((3R,6R)-5-amino-6-fluoro-3,6-dimethyl-1,1-dioxido-3,6-dihydro-2H-1,4-thiazin-3-yl)-4-fluorophenyl)-5-chloro-3-fluoro-2-pyridinecarboxamide], the IC50 at Cathepsin D (Cat D) is greater than 400 µM; in experiment [1], 0.0789 µM; in experiment [2], 0.0008 µM.

With `Cc1cc(OC(F)F)cnc1C(=O)Nc1ccc(F)c([C@]2(C)CS(=O)(=O)[C@@](C)(F)C(N)=N2)c1` [Example 321, N-(3-((3R,6R)-5-amino-6-fluoro-3,6-dimethyl-1,1-dioxido-3,6-dihydro-2H-1,4-thiazin-3-yl)-4-fluorophenyl)-5-(difluoromethoxy)-3-methyl-2-pyridinecarboxamide], the IC50 on Cathepsin D (Cat D) amounted to 387 µM; in experiment [1] it was 0.0449 µM; in experiment [2] it was 0.00072 µM.

In the case of `C[C@]1(F)C(N)=N[C@](C)(c2cc(NC(=O)c3ccc(F)cn3)ccc2F)CS1(=O)=O` [Example 322, N-(3-((3R,6R)-5-amino-6-fluoro-3,6-dimethyl-1,1-dioxido-3,6-dihydro-2H-1,4-thiazin-3-yl)-4-fluorophenyl)-5-fluoro-2-pyridinecarboxamide], the results for the IC50 (at Cathepsin D (Cat D); in experiment [1]; in experiment [2]) were 1220 µM, 0.134 µM and 0.00195 µM, respectively.

For the compound `C[C@]1(F)C(N)=N[C@](C)(c2cc(NC(=O)c3cnc(C(F)(F)F)cn3)ccc2F)CS1(=O)=O` [Example 323, N-(3-((3R,6R)-5-amino-6-fluoro-3,6-dimethyl-1,1-dioxido-3,6-dihydro-2H-1,4-thiazin-3-yl)-4-fluorophenyl)-5-(trifluoromethyl)-2-pyrazinecarboxamide], the IC50 on Cathepsin D (Cat D) was 931 µM; in experiment [1], 0.288 µM; in experiment [2], 0.00386 µM.

Take `Cc1cc(C#N)cnc1C(=O)Nc1ccc(F)c([C@]2(C)CS(=O)(=O)[C@@](C)(F)C(N)=N2)c1` [Example 324, N-(3-((3R,6R)-5-amino-6-fluoro-3,6-dimethyl-1,1-dioxido-3,6-dihydro-2H-1,4-thiazin-3-yl)-4-fluorophenyl)-5-cyano-3-methyl-2-pyridinecarboxamide]: the IC50 at Cathepsin D (Cat D) came out at 1370 µM; in experiment [1], 0.0651 µM; in experiment [2] it was 0.00102 µM.

Consider `C[C@]1(F)C(N)=N[C@](C)(c2cc(NC(=O)c3cnc(OCC(F)(F)F)cn3)ccc2F)CS1(=O)=O` [Example 325, N-(3-((3R,6R)-5-amino-6-fluoro-3,6-dimethyl-1,1-dioxido-3,6-dihydro-2H-1,4-thiazin-3-yl)-4-fluorophenyl)-5-(2,2,2-trifluoroethoxy)-2-pyrazinecarboxamide], for which the 50% inhibitory concentration (IC50) at Cathepsin D (Cat D) is 1260 µM; in experiment [1], 0.0445 µM; in experiment [2], 0.00042 µM.

`C[C@]1(F)C(N)=N[C@](C)(c2cc(NC(=O)c3ncc(C(F)F)cc3Cl)ccc2F)CS1(=O)=O` [Example 326, N-(3-((3R,6R)-5-amino-6-fluoro-3,6-dimethyl-1,1-dioxido-3,6-dihydro-2H-1,4-thiazin-3-yl)-4-fluorophenyl)-3-chloro-5-(difluoromethyl)-2-pyridinecarboxamide]: the results for the IC50 (on Cathepsin D (Cat D); in experiment [1]; in experiment [2]) were 979 µM, 0.0597 µM and 0.00277 µM, respectively.

Turning to `C[C@]1(F)C(N)=N[C@](C)(c2cc(NC(=O)c3ncc(C#N)cc3Cl)ccc2F)CS1(=O)=O` [Example 327, N-(3-((3R,6R)-5-amino-6-fluoro-3,6-dimethyl-1,1-dioxido-3,6-dihydro-2H-1,4-thiazin-3-yl)-4-fluorophenyl)-3-chloro-5-cyano-2-pyridinecarboxamide], the IC50 on Cathepsin D (Cat D) is greater than 400 µM; in experiment [1], 0.0204 µM; in experiment [2], 0.00074 µM.

Consider `COCc1cc(Cl)cnc1C(=O)Nc1ccc(F)c([C@]2(C)CS(=O)(=O)[C@@](C)(F)C(N)=N2)c1` [Example 328, N-(3-((3R,6R)-5-amino-6-fluoro-3,6-dimethyl-1,1-dioxido-3,6-dihydro-2H-1,4-thiazin-3-yl)-4-fluorophenyl)-5-chloro-3-(methoxymethyl)-2-pyridinecarboxamide], for which the concentration for half-maximal inhibition (IC50) was found to be 598 µM on Cathepsin D (Cat D), 0.0928 µM in experiment [1] and 0.00051 µM in experiment [2].

Take `CC1(C)C(N)=N[C@](C)(c2cc(NC(=O)c3ncc(Cl)cc3F)ccc2F)C(F)S1(=O)=O` (stereo partly drawn) [Example 329, N-(3-((3R)-5-amino-2-fluoro-3,6,6-trimethyl-1,1-dioxido-3,6-dihydro-2H-1,4-thiazin-3-yl)-4-fluorophenyl)-5-chloro-3-fluoro-2-pyridinecarboxamide]: the figures for the 50% inhibitory concentration (IC50) (at Cathepsin D (Cat D); in experiment [1]; in experiment [2]) were greater than 400 µM, 0.0058 µM and 0.00047 µM, respectively.

Turning to `Cc1cc(OC(F)F)cnc1C(=O)Nc1ccc(F)c([C@@]2(C)N=C(N)C(C)(C)S(=O)(=O)C2F)c1` (stereo partly drawn) [Example 330, N-(3-((3R)-5-amino-2-fluoro-3,6,6-trimethyl-1,1-dioxido-3,6-dihydro-2H-1,4-thiazin-3-yl)-4-fluorophenyl)-5-(difluoromethoxy)-3-methyl-2-pyridinecarboxamide], the IC50 at Cathepsin D (Cat D) amounted to 136 µM; in experiment [1], 0.0041 µM; in experiment [2], 0.00075 µM.

In the case of `Cc1cc(Cl)cnc1C(=O)Nc1ccc(F)c([C@@]2(C)N=C(N)C(C)(C)S(=O)(=O)C2F)c1` (stereo partly drawn) [Example 331, N-(3-((3R)-5-amino-2-fluoro-3,6,6-trimethyl-1,1-dioxido-3,6-dihydro-2H-1,4-thiazin-3-yl)-4-fluorophenyl)-5-chloro-3-methyl-2-pyridinecarboxamide], the results for the IC50 (at Cathepsin D (Cat D); in experiment [1]; in experiment [2]) were 188 µM, 0.0048 µM and 0.0003 µM, respectively.

On to `CC#CCOc1cnc(C(=O)Nc2ccc(F)c([C@@]3(C)N=C(N)C(C)(C)S(=O)(=O)C3F)c2)cn1` (stereo partly drawn) [Example 332, N-(3-((3R)-5-amino-2-fluoro-3,6,6-trimethyl-1,1-dioxido-3,6-dihydro-2H-1,4-thiazin-3-yl)-4-fluorophenyl)-5-(2-butyn-1-yloxy)-2-pyrazinecarboxamide], for which the IC50 at Cathepsin D (Cat D) amounted to 44.9 µM; in experiment [1], 0.001 µM; in experiment [2] it was 0.00023 µM.

With `CC1(C)C(N)=N[C@](C)(c2cc(NC(=O)c3cnc(OCC(F)(F)F)cn3)ccc2F)C(F)S1(=O)=O` (stereo partly drawn) [Example 333, N-(3-((3R)-5-amino-2-fluoro-3,6,6-trimethyl-1,1-dioxido-3,6-dihydro-2H-1,4-thiazin-3-yl)-4-fluorophenyl)-5-(2,2,2-trifluoroethoxy)-2-pyrazinecarboxamide], the IC50 at Cathepsin D (Cat D) is 190 µM; in experiment [1], 0.016 µM; in experiment [2], 0.0015 µM.

Regarding `CC1(C)C(N)=N[C@](C)(c2cc(NC(=O)c3ccc(C(F)F)cn3)ccc2F)C(F)S1(=O)=O` (stereo partly drawn) [Example 334, N-(3-((3R)-5-amino-2-fluoro-3,6,6-trimethyl-1,1-dioxido-3,6-dihydro-2H-1,4-thiazin-3-yl)-4-fluorophenyl)-5-(difluoromethyl)-2-pyridinecarboxamide], the IC50 on Cathepsin D (Cat D) is 307 µM; in experiment [1], 0.0055 µM; in experiment [2], 0.0024 µM.

What is called IC50 is the point on the concentration scale where inhibition reaches its midpoint.
